In PubChem BioAssay (NCI):
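Grown in 96-well plates, cells were treated for 48 hours with each compound at five concentrations. Insufficient inhibition: endpoint recorded as highest concentration tested. At the TGI there is no net growth.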

Assays:
Assay in all cases: inhibition of tumour cell growth, NCI panel, 48 h
[1] = test system: DMS 273 small cell lung
[2] = test system: A498 renal
[3] = test system: SF-539 CNS
[4] = test system: HOP-92 NSCLC
[5] = test system: UO-31 renal
[6] = test system: IGROV1 ovarian
[7] = test system: KM12 colon
[8] = test system: NCI-H23 lung
[9] = test system: SK-MEL-28 melanoma
[10] = test system: UACC-62 melanoma
[11] = test system: HCC-2998 colon
[12] = test system: CCRF-CEM leukemia
[13] = test system: NCI-H522 lung
[14] = test system: NCI-H460 lung
[15] = test system: OVCAR-3 ovarian
[16] = test system: SW-620 colon
[17] = test system: RXF-631 renal
[18] = test system: UACC-257 melanoma
[19] = test system: KM20L2 colon
[20] = test system: XF 498 CNS
[21] = test system: SK-OV-3 ovarian
[22] = test system: COLO 205 colon
[23] = test system: OVCAR-5 ovarian
[24] = test system: SNB-78 CNS
[25] = test system: LOX IMVI melanoma
[26] = test system: EKVX NSCLC
[27] = test system: M14 melanoma
[28] = test system: RXF 393 renal
[29] = test system: SNB-75 CNS
[30] = test system: MOLT-4 leukemia
[31] = test system: HL-60(TB) leukemia
[32] = test system: MALME-3M melanoma
[33] = test system: HT29 colon
[34] = test system: TK-10 renal
[35] = test system: ACHN renal
[36] = test system: DLD-1 colon
[37] = test system: SNB-19 CNS
[38] = test system: 786-0 renal
[39] = test system: SK-MEL-2 melanoma
[40] = test system: DMS 114 small cell lung
[41] = test system: M19-MEL melanoma
[42] = test system: U251 CNS
[43] = test system: LXFL 529 NSCLC
[44] = test system: HOP-62 NSCLC
[45] = test system: A549 NSCLC
[46] = test system: HCT-116 colon
[47] = test system: RPMI-8226 leukemia
[48] = test system: OVCAR-8 ovarian
[49] = test system: K-562 leukemia

Measured: TGI

CC(C)(C)NC(=O)NC12CC3CC(CC(F)(C3)C1)C2
> 100 µM: all assays above
